These results are taken from patent publication US20110053982A1, “ETHER BENZYLIDENE PIPERIDINE 5-MEMBERED ARYL CARBOXAMIDE COMPOUNDS USEFUL AS FAAH INHIBITORS” (PFIZER INC., priority 2008, published 2011).

One assay concerns the target T1, Human FAAH (Homo sapiens, UniProt O00519).
T1 construct: made in house
T1 sequence (O00519 32-579 limits assumed): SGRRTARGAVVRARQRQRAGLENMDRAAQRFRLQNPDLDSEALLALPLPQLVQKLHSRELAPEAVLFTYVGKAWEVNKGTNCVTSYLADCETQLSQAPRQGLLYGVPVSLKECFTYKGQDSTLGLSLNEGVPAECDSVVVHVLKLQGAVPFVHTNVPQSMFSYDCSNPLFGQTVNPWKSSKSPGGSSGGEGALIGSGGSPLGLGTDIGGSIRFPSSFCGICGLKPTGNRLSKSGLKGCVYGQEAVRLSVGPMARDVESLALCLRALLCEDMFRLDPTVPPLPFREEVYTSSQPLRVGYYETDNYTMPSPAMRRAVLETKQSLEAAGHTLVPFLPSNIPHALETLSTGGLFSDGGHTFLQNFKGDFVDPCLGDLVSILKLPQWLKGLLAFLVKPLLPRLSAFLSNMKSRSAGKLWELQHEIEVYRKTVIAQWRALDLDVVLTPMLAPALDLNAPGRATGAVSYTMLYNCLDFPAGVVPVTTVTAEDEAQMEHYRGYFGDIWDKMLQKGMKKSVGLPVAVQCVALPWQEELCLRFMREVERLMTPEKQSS
The assay can be described thus: FAAH assay, kinetic analysis of irreversible inhibition (kinact/Ki). The class given is biochemical. Particulars: additional data table, unit inferred, read-out: hFAAH_Kinact/Ki. How it is done:
A FAAH assay may be carried out in 384-well clear polystyrene plates in a total volume of 50 μl per well. All percents are by volume. To each well is placed the reaction mixture (40 μl) containing 1-4 nM FAAH, 50 mM NaPi, pH 7.4, 3 mM α-ketoglutarate, 0.15 mM NADH, 7.5 U/ml glutamate dehydrogenase, 2 mM ADP, 1 mM EDTA, and 0.1% Triton X-100 (The concentration shown for each component is the final concentration in the assay). To this mixture is added 5 μl of a compound of Examples 1 to 20 at various concentrations prepared in 50% DMSO (or 5 μl 50% DMSO for controls). This is immediately followed by the addition of 5 μl oleamide (500 μM) dissolved in […] and the reaction mixture is mixed for 1.5 min. The final concentrations of DMSO and EtOH in the assay are each 7.5%. The reactions is then incubated at 30° C. and the absorbance at 340 nm is collected over a period of 90 min with readings taken in 30-second intervals using SpectraMax Plus^384 Microplate Spectrophotometer (Molecular Devices, Sunnyvale, Calif.). Human FAAH used in the assay is prepared as described in the patent application WO 2006/067613. The purity of the enzyme used is preferably greater than 98% based on an analysis by SDS-polyacrylamide gel electrophoresis followed by Coomassie Blue staining.
Initial velocity data (V) is obtained from the slopes of the initial progressive curves. They are plotted as a function of substrate concentration and fit to the Michaelis-Menten equation (1) using Prism (GraphPad Software, Inc., San Diego, Calif.) software to obtain Km and Vmax values.
To obtain potencies of irreversible inhibitors, progressive curves consistent with first order inhibition kinetics (two-step irreversible inhibition mechanism) are fit to equation (2) by nonlinear least squares regressions to determine kobs values at each inhibitor concentration, where [P]t is the absorbance at time t, V0 is a constant related to the steady state rate of the uninhibited reaction, and kobs is the first order rate constant for enzyme inactivation. The inhibitor dissociation constant (Ki) and the first order rate
constant of enzyme inactivation at infinite inhibitor concentration (kinact) are then obtained by fitting the kobs vs. [I] curves to equation (3).

The next assay has as its target T2, rFAAH (Rattus norvegicus, UniProt P97612).
T2 sequence (P97612 1-579): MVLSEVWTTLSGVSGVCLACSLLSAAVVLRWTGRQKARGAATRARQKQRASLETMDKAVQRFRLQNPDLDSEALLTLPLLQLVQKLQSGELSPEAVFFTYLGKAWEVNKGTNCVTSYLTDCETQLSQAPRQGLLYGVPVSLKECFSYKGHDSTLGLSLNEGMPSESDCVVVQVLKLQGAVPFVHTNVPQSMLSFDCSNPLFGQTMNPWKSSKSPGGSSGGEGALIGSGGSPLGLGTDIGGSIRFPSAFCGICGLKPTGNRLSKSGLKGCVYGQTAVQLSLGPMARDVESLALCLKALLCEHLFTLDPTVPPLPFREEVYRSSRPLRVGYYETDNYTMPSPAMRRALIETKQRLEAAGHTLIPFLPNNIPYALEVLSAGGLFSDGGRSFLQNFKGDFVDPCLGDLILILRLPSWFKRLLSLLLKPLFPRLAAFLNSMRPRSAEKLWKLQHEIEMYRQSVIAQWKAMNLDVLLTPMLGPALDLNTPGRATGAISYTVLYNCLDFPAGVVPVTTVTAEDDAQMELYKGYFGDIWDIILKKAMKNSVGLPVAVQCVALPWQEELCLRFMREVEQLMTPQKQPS
Put plainly: FAAH assay, rFAAH kobs/I. The class given is biochemical. To be noted: additional data table, unit not given.

`Cc1noc(NC(=O)N2CCC(=Cc3cccc(OCCC(C)C)c3)CC2)c1C` [N-(3,4-dimethylisoxazol-5-yl)-4-[3-(3-methylbutoxy)benzylidene]piperidine-1-carboxamide]: the kinact/KI on Human FAAH was found to be 7710 M⁻¹ s⁻¹. For the same compound, on rFAAH, the “FAAH_KINACTR:rFAAH:kobs/I” value is reported as 2590.

Take `Cc1noc(NC(=O)N2CCC(=Cc3cccc(OCC(C)CC(F)(F)F)c3)CC2)c1C` (stereo not drawn) [N-(3,4-dimethylisoxazol-5-yl)-4-[3-(4,4,4-trifluoro-2-methylbutoxy)benzylidene]piperidine-1-carboxamide]: at Human FAAH, the kinact/KI stood at 5190 M⁻¹ s⁻¹. For the same compound, the “FAAH_KINACTR:rFAAH:kobs/I” value at rFAAH was determined as 2530.

With `Cc1noc(NC(=O)N2CCC(=Cc3cccc(OCCCC(F)(F)F)c3)CC2)c1C` [N-(3,4-dimethylisoxazol-5-yl)-4-[3-(4,4,4-trifluorobutoxy)benzylidene]piperidine-1-carboxamide], the kinact/KI at Human FAAH was 12900 M⁻¹ s⁻¹. Besides, the “FAAH_KINACTR:rFAAH:kobs/I” value at rFAAH came out at 1540.

As to `Cc1noc(NC(=O)N2CCC(=Cc3cccc(OCCc4cccc(F)c4)c3)CC2)c1C` [N-(3,4-dimethylisoxazol-5-yl)-4-{3-[2-(3-fluorophenyl)ethoxy]benzylidene}piperidine-1-carboxamide], on Human FAAH, the kinact/KI amounted to 12100 M⁻¹ s⁻¹. In addition, the “FAAH_KINACTR:rFAAH:kobs/I” value at rFAAH stood at 9280.

Regarding `Cc1cccc(OCCOc2cccc(C=C3CCN(C(=O)Nc4onc(C)c4C)CC3)c2)c1` [N-(3,4-dimethylisoxazol-5-yl)-4-{3-[2-(3-methylphenoxy)ethoxy]benzylidene}piperidine-1-carboxamide], the kinact/KI at Human FAAH is 13900 M⁻¹ s⁻¹. Moreover, the “FAAH_KINACTR:rFAAH:kobs/I” value at rFAAH was determined as 7840.

With `Cc1noc(NC(=O)N2CCC(=Cc3cccc(OCCc4ccc(F)cc4)c3)CC2)c1C` [N-(3,4-dimethylisoxazol-5-yl)-4-{3-[2-(4-fluorophenyl)ethoxy]benzylidene}piperidine-1-carboxamide], the kinact/KI on Human FAAH is 12800 M⁻¹ s⁻¹. For the same compound, the “FAAH_KINACTR:rFAAH:kobs/I” value on rFAAH is 7550.

With `Cc1ncsc1CCOc1cccc(C=C2CCN(C(=O)Nc3onc(C)c3C)CC2)c1` [N-(3,4-dimethylisoxazol-5-yl)-4-{3-[2-(4-methyl-1,3-thiazol-5-yl)ethoxy]benzylidene}piperidine-1-carboxamide], the kinact/KI on Human FAAH was 4920 M⁻¹ s⁻¹. Besides, on rFAAH, the “FAAH_KINACTR:rFAAH:kobs/I” value stood at 1920.

With `Cc1oncc1NC(=O)N1CCC(=Cc2cccc(OC(C)Cc3ccccc3)c2)CC1` (stereo not drawn) [N-(5-methylisoxazol-4-yl)-4-[3-(1-methyl-2-phenylethoxy)benzylidene]piperidine-1-carboxamide], the kinact/KI at Human FAAH turned out to be 2150 M⁻¹ s⁻¹. The “FAAH_KINACTR:rFAAH:kobs/I” value on rFAAH is recorded as 208.

Consider `Cc1oncc1NC(=O)N1CCC(=Cc2cccc(OCC(C)CC(F)(F)F)c2)CC1` (stereo not drawn) [N-(5-methylisoxazol-4-yl)-4-[3-(4,4,4-trifluoro-2-methylbutoxy)benzylidene]piperidine-1-carboxamide], for which the kinact/KI at Human FAAH came out at 3200 M⁻¹ s⁻¹. The “FAAH_KINACTR:rFAAH:kobs/I” value at rFAAH was below 11.5.

For `Cc1oncc1NC(=O)N1CCC(=Cc2cccc(OCCCC(F)(F)F)c2)CC1` [N-(5-methylisoxazol-4-yl)-4-[3-(4,4,4-trifluorobutoxy)benzylidene]piperidine-1-carboxamide], the kinact/KI at Human FAAH is 7410 M⁻¹ s⁻¹. Moreover, the “FAAH_KINACTR:rFAAH:kobs/I” value on rFAAH is recorded as below 10.0.

As to `Cc1oncc1NC(=O)N1CCC(=Cc2cccc(OCC3CCCCO3)c2)CC1` (stereo not drawn) [N-(5-methylisoxazol-4-yl)-4-[3-(tetrahydro-2H-pyran-2-ylmethoxy)benzylidene]piperidine-1-carboxamide], the kinact/KI on Human FAAH is 646 M⁻¹ s⁻¹. The “FAAH_KINACTR:rFAAH:kobs/I” value on rFAAH was below 11.3.

For `Cc1cccc(OCCOc2cccc(C=C3CCN(C(=O)Nc4cnoc4C)CC3)c2)c1` [N-(5-methylisoxazol-4-yl)-4-{3-[2-(3-methylphenoxy)ethoxy]benzylidene}piperidine-1-carboxamide], the kinact/KI at Human FAAH was 10600 M⁻¹ s⁻¹. In addition, the “FAAH_KINACTR:rFAAH:kobs/I” value on rFAAH is listed as 57.1.

As to `Cc1ncsc1CCOc1cccc(C=C2CCN(C(=O)Nc3cnoc3C)CC2)c1` [N-(5-methylisoxazol-4-yl)-4-{3-[2-(4-methyl-1,3-thiazol-5-yl)ethoxy]benzylidene}piperidine-1-carboxamide], the kinact/KI on Human FAAH was found to be 903 M⁻¹ s⁻¹. Besides, the “FAAH_KINACTR:rFAAH:kobs/I” value at rFAAH is given as below 11.9.

For the compound `O=C(Nc1cnoc1)N1CCC(=Cc2cccc(OCC3CCCCO3)c2)CC1` (stereo not drawn) [N-isoxazol-4-yl-4-[3-(tetrahydro-2H-pyran-2-ylmethoxy)benzylidene]piperidine-1-carboxamide], the kinact/KI on Human FAAH came out at 384 M⁻¹ s⁻¹. Also, the “FAAH_KINACTR:rFAAH:kobs/I” value on rFAAH is recorded as 18.

Take `Cc1ncsc1CCOc1cccc(C=C2CCN(C(=O)Nc3cnoc3)CC2)c1` [N-isoxazol-4-yl-4-{3-[2-(4-methyl-1,3-thiazol-5-yl)ethoxy]benzylidene}piperidine-1-carboxamide]: the kinact/KI at Human FAAH turned out to be 514 M⁻¹ s⁻¹. Also, on rFAAH, the “FAAH_KINACTR:rFAAH:kobs/I” value is listed as below 10.0.
